# ChEMBL document CHEMBL1255183, “Role of the phenolic hydroxyl group in the biological activities of simplified analogue of aplysiatoxin with antiproliferative activity” (Bioorg Med Chem Lett, 2010)
# Legend:
# DMS-273 = assay: Cytotoxicity against human DMS273 cells; type: functional
# DMS-114 = assay: Cytotoxicity against human DMS114 cells; type: functional
# Raji [1] = assay: Induction of EBA-early antigen production in human Raji cells at 10^-7 M; type: cell-based; conditions: human gammaherpesvirus 4
# [2] = Cytotoxicity against human Raji cells assessed as viability at 1 uM in presence of TPA; type: cell-based; conditions: read-out: Activity
# [3] = Cytotoxicity against human Raji cells assessed as viability at 1 uM; type: cell-based; conditions: read-out: Activity
# [4] = Cytotoxicity against human Raji cells assessed as viability at 10^-7 M in presence of TPA; type: cell-based; conditions: read-out: Activity
# [5] = Cytotoxicity against human Raji cells assessed as viability at 10^-7 M; type: cell-based; conditions: read-out: Activity
# Raji [6] = assay: Inhibition of TPA-induced EBA-early antigen production in human Raji cells at 1 uM; type: cell-based; parameters: scale not given: the % may be the effect or the level left; conditions: human gammaherpesvirus 4
# Raji [7] = assay: Induction of EBA-early antigen production in human Raji cells at 1 uM; type: cell-based; conditions: human gammaherpesvirus 4
# Raji [8] = assay: Inhibition of TPA-induced EBA-early antigen production in human Raji cells at 10^-7 M; type: cell-based; parameters: scale not given: the % may be the effect or the level left; conditions: human gammaherpesvirus 4
# [9] = biological target: Protein kinase C alpha type (Homo sapiens, UniProt P17252); assay: Inhibition of [3H]PDBu binding to PKC alpha C1A peptide
# [10] = biological target: Protein kinase C beta type (Homo sapiens, UniProt P05771); assay: Inhibition of [3H]PDBu binding to PKC beta C1A peptide
# [11] = biological target: Protein kinase C gamma type (Homo sapiens, UniProt P05129); assay: Inhibition of [3H]PDBu binding to PKC gamma C1A peptide
# [12] = biological target: T1, Protein kinase C delta type (Homo sapiens, UniProt Q05655); assay: Inhibition of [3H]PDBu binding to PKC delta C1A peptide
# [13] = biological target: T1, Protein kinase C delta type; assay: Inhibition of [3H]PDBu binding to PKC delta C1B peptide
# [14] = biological target: T2, Protein kinase C epsilon type (Homo sapiens, UniProt Q02156); assay: Inhibition of [3H]PDBu binding to PKCepsilon C1B peptide
# T2 sequence (Q02156 whole entry): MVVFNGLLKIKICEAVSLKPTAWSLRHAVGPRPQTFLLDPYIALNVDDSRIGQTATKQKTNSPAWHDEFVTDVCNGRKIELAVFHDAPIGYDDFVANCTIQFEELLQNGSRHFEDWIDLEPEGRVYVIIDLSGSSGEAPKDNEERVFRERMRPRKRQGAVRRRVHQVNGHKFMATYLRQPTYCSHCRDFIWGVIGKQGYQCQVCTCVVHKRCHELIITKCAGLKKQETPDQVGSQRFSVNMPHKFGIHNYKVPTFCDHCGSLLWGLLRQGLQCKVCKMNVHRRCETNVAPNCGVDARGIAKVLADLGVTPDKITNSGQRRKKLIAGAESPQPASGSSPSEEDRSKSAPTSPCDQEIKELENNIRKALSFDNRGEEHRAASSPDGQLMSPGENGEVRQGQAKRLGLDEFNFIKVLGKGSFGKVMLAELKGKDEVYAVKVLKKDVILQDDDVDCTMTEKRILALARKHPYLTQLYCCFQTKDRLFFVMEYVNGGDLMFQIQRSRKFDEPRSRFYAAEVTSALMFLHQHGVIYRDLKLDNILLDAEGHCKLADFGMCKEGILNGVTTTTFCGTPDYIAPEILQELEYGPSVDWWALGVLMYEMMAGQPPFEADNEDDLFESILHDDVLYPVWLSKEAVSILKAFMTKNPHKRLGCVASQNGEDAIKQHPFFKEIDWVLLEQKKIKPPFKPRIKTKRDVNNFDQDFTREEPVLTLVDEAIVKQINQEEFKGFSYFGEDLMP
# [15] = biological target: Protein kinase C eta type (Homo sapiens, UniProt P24723); assay: Inhibition of [3H]PDBu binding to PKCeta C1B peptide
# [16] = biological target: Protein kinase C theta type (Homo sapiens, UniProt Q04759); assay: Inhibition of [3H]PDBu binding to PKCtheta C1B peptide
# [17] = Cytotoxicity against human HBC4 cells; type: functional
# [18] = Cytotoxicity against human BSY1 cells; type: functional; conditions: BSY-1
# MDA-MB-231 = assay: Cytotoxicity against human MDA-MB-231 cells; type: functional
# SF-295 = assay: Cytotoxicity against human SF295 cells; type: functional
# HCC 2998 = assay: Cytotoxicity against human HCC2998 cells; type: functional
# NCI-H460 = assay: Cytotoxicity against human NCI-H460 cells; type: functional
# A549 = assay: Cytotoxicity against human A549 cells; type: functional
# LOX IMVI = assay: Cytotoxicity against human LOXIMVI cells; type: functional
# St-4 = assay: Cytotoxicity against human St-4 cells; type: functional
# MKN-45 = assay: Cytotoxicity against human MKN45 cells; type: functional
# PC-3 = assay: Cytotoxicity against human PC3 cells; type: functional
# MCF7 = assay: Cytotoxicity against human MCF7 cells; type: functional
# SF-268 = assay: Cytotoxicity against human SF268 cells; type: functional
# SF-539 = assay: Cytotoxicity against human SF539 cells; type: functional
# U-251 = assay: Cytotoxicity against human U251 cells; type: functional
# SNB-75 = assay: Cytotoxicity against human SNB75 cells; type: functional
# SNB-78 = assay: Cytotoxicity against human SNB78 cells; type: functional
# KM12 = assay: Cytotoxicity against human KM12 cells; type: functional
# HT-29 = assay: Cytotoxicity against human HT-29 cells; type: functional
# HCT-15 = assay: Cytotoxicity against human HCT15 cells; type: functional
# HCT-116 = assay: Cytotoxicity against human HCT116 cells; type: functional
# NCI-H23 = assay: Cytotoxicity against human NCI-H23 cells; type: functional
# NCI-H226 = assay: Cytotoxicity against human NCI-H226 cells; type: functional
# NCI-H522 = assay: Cytotoxicity against human NCI-H522 cells; type: functional
# OVCAR-3 = assay: Cytotoxicity against human OVCAR-3 cells; type: functional
# OVCAR-4 = assay: Cytotoxicity against human OVCAR4 cells; type: functional
# OVCAR-5 = assay: Cytotoxicity against human OVCAR5 cells; type: functional
# OVCAR-8 = assay: Cytotoxicity against human OVCAR8 cells; type: functional
# [19] = Cytotoxicity against human RXF631L cells; type: functional; conditions: RXF 631
# SK-OV-3 = assay: Cytotoxicity against human SKOV3 cells; type: functional
# ACHN = assay: Cytotoxicity against human ACHN cells; type: functional
# [20] = Cytotoxicity against human MKN1 cells; type: functional; conditions: MKN-1
# MKN-7 = assay: Cytotoxicity against human MKN7 cells; type: functional
# MKN-28 = assay: Cytotoxicity against human MKN28 cells; type: functional
# MKN-74 = assay: Cytotoxicity against human MKN74 cells; type: functional
# DU-145 = assay: Cytotoxicity against human DU145 cells; type: functional
# T1 sequence (Q05655 whole entry): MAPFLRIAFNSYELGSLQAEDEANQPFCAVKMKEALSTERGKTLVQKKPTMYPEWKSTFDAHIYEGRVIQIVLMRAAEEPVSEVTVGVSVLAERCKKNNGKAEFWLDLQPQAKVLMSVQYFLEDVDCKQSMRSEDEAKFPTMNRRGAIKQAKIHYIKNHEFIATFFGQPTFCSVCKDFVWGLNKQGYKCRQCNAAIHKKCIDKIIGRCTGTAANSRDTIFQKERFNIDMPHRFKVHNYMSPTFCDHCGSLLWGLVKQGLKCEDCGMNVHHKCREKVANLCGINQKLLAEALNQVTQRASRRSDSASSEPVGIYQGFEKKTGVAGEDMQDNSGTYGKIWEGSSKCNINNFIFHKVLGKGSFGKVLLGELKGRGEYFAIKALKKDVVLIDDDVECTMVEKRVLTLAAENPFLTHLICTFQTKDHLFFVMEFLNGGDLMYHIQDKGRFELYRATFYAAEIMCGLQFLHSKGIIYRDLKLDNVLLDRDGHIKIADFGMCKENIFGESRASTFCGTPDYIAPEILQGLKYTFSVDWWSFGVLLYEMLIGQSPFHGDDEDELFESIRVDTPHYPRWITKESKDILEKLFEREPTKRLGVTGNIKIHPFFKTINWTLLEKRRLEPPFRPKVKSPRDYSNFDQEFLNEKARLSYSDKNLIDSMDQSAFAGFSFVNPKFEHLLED
# Protein kinase C eta type, sequence (P24723 whole entry): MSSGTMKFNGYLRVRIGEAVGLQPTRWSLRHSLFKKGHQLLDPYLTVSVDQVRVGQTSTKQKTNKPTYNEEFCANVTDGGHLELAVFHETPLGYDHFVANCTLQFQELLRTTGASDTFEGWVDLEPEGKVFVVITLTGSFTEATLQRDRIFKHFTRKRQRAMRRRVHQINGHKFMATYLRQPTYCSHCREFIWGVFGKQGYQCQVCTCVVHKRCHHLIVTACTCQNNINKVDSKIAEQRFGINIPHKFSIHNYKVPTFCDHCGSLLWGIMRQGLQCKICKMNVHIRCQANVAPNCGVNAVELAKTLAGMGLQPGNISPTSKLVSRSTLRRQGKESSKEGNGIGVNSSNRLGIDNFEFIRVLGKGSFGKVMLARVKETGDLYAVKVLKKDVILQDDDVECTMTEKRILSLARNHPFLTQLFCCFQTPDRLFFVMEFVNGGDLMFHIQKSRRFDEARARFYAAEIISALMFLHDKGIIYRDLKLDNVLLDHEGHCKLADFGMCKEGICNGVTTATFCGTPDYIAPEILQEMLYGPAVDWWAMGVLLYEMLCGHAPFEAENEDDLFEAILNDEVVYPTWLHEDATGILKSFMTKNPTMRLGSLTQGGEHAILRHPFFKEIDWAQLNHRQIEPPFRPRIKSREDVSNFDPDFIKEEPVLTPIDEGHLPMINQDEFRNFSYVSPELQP
# Protein kinase C beta type, sequence (P05771 whole entry): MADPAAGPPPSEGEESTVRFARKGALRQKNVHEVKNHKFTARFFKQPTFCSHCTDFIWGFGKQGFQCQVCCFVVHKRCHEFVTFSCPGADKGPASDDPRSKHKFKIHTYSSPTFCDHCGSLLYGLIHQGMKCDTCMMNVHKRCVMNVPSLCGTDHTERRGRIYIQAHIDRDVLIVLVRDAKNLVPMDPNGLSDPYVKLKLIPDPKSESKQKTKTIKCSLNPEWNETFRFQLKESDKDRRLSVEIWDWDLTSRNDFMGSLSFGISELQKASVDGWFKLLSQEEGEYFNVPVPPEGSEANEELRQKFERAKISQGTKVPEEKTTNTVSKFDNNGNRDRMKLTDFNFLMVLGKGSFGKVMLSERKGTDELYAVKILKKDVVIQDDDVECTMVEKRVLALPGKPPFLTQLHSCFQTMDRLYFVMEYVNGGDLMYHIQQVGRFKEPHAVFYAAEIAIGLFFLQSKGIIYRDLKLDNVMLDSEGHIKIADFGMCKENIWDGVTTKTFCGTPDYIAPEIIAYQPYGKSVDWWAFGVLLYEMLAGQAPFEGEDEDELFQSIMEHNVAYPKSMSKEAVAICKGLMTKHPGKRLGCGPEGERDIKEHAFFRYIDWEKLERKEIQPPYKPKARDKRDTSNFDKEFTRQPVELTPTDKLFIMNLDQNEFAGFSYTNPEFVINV
# Protein kinase C theta type, sequence (Q04759 whole entry): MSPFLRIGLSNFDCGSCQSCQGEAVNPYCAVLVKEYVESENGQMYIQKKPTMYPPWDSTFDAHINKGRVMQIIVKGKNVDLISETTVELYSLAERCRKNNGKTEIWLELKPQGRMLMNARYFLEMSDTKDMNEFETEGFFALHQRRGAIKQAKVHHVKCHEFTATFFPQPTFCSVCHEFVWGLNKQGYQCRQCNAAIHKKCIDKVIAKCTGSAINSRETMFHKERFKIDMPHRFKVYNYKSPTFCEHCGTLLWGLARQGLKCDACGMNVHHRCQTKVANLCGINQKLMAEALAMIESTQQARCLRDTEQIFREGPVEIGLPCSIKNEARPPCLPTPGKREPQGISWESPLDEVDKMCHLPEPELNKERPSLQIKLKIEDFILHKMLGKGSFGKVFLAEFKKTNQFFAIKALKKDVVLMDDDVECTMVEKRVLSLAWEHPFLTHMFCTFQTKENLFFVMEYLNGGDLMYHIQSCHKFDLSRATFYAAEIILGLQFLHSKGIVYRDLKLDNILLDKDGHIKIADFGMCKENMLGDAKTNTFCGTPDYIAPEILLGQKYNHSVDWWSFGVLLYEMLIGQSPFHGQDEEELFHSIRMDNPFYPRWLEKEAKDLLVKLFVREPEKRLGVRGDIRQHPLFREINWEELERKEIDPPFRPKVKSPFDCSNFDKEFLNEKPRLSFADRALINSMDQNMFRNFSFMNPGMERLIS
smiles,measurement,setting,value
CC1(C)CC[C@@H]2CC(=O)O[C@@H](CO)CC(=O)O[C@@H]3C[C@@H](CCCCc4cccc(O)c4)O[C@@]1(C3)O2,GI50,DMS-273,12.6 µM
same,GI50,DMS-114,16.2 µM
same,Activity,Raji [1],9.4%
same,viability at 1 µM,[2],60%
same,viability at 1 µM,[3],60%
same,viability at 0.1 µM,[4],60%
same,viability at 0.1 µM,[5],60%
same,Activity,Raji [6],7.5%
same,Activity,Raji [7],10.4%
same,Activity,Raji [8],10.1%
same,Ki,[9],0.063 µM
same,Ki,[10],0.089 µM
same,Ki,[11],0.039 µM
same,Ki,[12],0.14 µM
same,Ki,[13],0.0074 µM
same,Ki,[14],0.025 µM
same,Ki,[15],0.0044 µM
same,Ki,[16],0.004 µM
same,GI50,[17],0.468 µM
same,GI50,[18],13.5 µM
same,GI50,MDA-MB-231,2.45 µM
same,GI50,SF-295,8.71 µM
same,GI50,HCC 2998,3.72 µM
same,GI50,NCI-H460,2.51 µM
same,GI50,A549,4.79 µM
same,GI50,LOX IMVI,1.82 µM
same,GI50,St-4,2.82 µM
same,GI50,MKN-45,4.68 µM
same,GI50,PC-3,11 µM
same,GI50,MCF7,19.1 µM
same,GI50,SF-268,14.8 µM
same,GI50,SF-539,10.7 µM
same,GI50,U-251,14.8 µM
same,GI50,SNB-75,15.8 µM
same,GI50,SNB-78,19.1 µM
same,GI50,KM12,13.8 µM
same,GI50,HT-29,17 µM
same,GI50,HCT-15,17.4 µM
same,GI50,HCT-116,16.2 µM
same,GI50,NCI-H23,13.2 µM
same,GI50,NCI-H226,15.5 µM
same,GI50,NCI-H522,13.5 µM
same,GI50,OVCAR-3,16.6 µM
same,GI50,OVCAR-4,17.8 µM
same,GI50,OVCAR-5,11.2 µM
same,GI50,OVCAR-8,19.5 µM
same,GI50,[19],16.2 µM
same,GI50,SK-OV-3,20.4 µM
same,GI50,ACHN,12 µM
same,GI50,[20],13.8 µM
same,GI50,MKN-7,16.6 µM
same,GI50,MKN-28,18.2 µM
same,GI50,MKN-74,17.4 µM
same,GI50,DU-145,14.1 µM
CO[C@@H](CC[C@H](C)[C@H]1O[C@@]23C[C@H](OC(=O)C[C@H]([C@@H](C)O)OC(=O)C[C@](O)(O2)[C@H](C)CC3(C)C)[C@@H]1C)c1cc(O)ccc1Br [APLYSIATOXIN],Activity,Raji [1],18.4%
same,viability at 1 µM,[2],40%
same,viability at 1 µM,[3],40%
same,viability at 0.1 µM,[4],50%
same,viability at 0.1 µM,[5],50%
same,Activity,Raji [6],19.4%
same,Activity,Raji [7],20.1%
same,Activity,Raji [8],17.8%
same,Ki,[9],0.0004 µM
same,Ki,[10],0.00045 µM
same,Ki,[11],0.00063 µM
same,Ki,[12],0.012 µM
same,Ki,[13],0.00041 µM
same,Ki,[14],0.0013 µM
same,Ki,[15],0.00036 µM
same,Ki,[16],0.00016 µM
CCCCCCCCCCCCCC(=O)O[C@@H]1[C@@H](C)[C@@]2(O)[C@@H](C=C(CO)C[C@]3(O)C(=O)C(C)=C[C@@H]23)[C@@H]2C(C)(C)[C@]12OC(C)=O [PHORBOL MYRISTATE ACETATE],Activity,Raji [1],28.8%
same,viability at 1 µM,[3],50%
same,viability at 0.1 µM,[5],60%
same,Activity,Raji [7],30.2%
